The term IC50 denotes the concentration needed to halve the response being measured. Low readings indicate greater potency, high ones weaker potency.

Data on one molecule can be found in US8653274B2, “Compounds suitable as precursors to compounds that are useful for imaging amyloid deposits” (AstraZeneca AB, priority 2008, dated 2014).

In this test the target is amyloid deposits (Homo sapiens, UniProt P05067). The test is described as follows: competition binding assay described in WO2007/086800. The settings on record: unlabeled compound.
amyloid deposits, sequence (P05067 672-711 limits assumed): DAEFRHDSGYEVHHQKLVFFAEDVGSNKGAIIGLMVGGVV

In the case of `CNc1ccc(-c2cc3cc(O)ccc3o2)c(F)n1` [2-(2-Fluoro-6-methylamino-pyridin-3-yl)-benzofuran-5-ol], the IC50 stood at 13 nM.
